System: SARS-CoV-2
Assay: Antiviral assay, inhibition of virus-induced cytopathic effect (CPE) of SARS-CoV-2 by MTT assay (Example 1)
Conditions: Severe acute respiratory syndrome coronavirus 2, Vero C1008, SARS-CoV-2, Vero E6 (CPE & MTT)

O=C[C@H](O)[C@@H](O)[C@H](O)CO [D-xylose]
IC50 (administration at the same time as the virus): 26.2 mM
IC50 (preincubation with cells 6 h before infection): 95.5 mM

Source: patent US20260355225A1 (priority 2022, published 2026)
